# Measurements published in patent US20230372364A1, “METHOD OF TREATING GABA MEDIATED DISORDERS” (Eliem Therapeutics (UK) Ltd, priority 2020, published 2023).
# Key:
# [1] = Pharmacokinetic parameters in preclinical rodent studies; format: in vivo; parameters: Oral BA / ½ life: unit not given here
# Description: The pharmacokinetic parameters of CV-10155 in preclinical studies on rodent models of seizure, anxiety, depression and EEG biomarker were analyzed.
# [2] = Further pharmacokinetic analysis of Phase 1 human dosing exposure studies; format: in vivo
# [3] = test system: dogs; assay: Repeat-dose toxicity up to four weeks, dogs; format: in vivo, dog; details: 28-day repeat dose
# Description: The no-observed-adverse-effect-level doses were 7.5/mg/kg/day and 6 mg/kg/day in rats and dogs, respectively.
# Justification for Dose—Based on the nonclinical toxicology data, there is not an unreasonable risk of adverse effects. Using the FDA guidance “Estimating the Maximum Safe Starting Dose in Initial Clinical Trials for Therapeutics in Adult Healthy Volunteers” (July, 2005), the calculated human equivalent dose would be 1/2 mg/kg/day or 3/24 mg/kg/day, respectively, based on the 28-day rat no-observed-adverse-effect-level dose of 7.5 mg/kg/day or the 28-day dog no-observed-adverse-effect-level dose of 6 mg/kg/day, respectively. For both species the no-observed-adverse-effect-level dose was the highest dose tested. For a 60 kg participant, this would result in a maximum safe starting dose of (human equivalent dose/10) of 7.2 mg/day or 19/6 mg/day. The starting doses in this Phase 1 study are 5 mg, equivalent to […] for a 60 kg participant. […] These anticipated Cmax and AUC values are ˜80- and 50-fold lower, respectively, than that observed at the no-observed-adverse-effect-level dose in dogs.
# [4] = In vitro genetic toxicology studies; details: two in vitro studies
# [5] = test system: rodent models; assay: Tolerability in rodent models; format: in vivo; details: at efficacious doses
# Text: The compound of Formula (I) is also believed to show antiepileptic activity in maximal electroshock and pentylenetetrazol seizure models, antidepressant properties in the forced swim test, and anxiolytic properties in the elevated plus maze test.
# [6] = test system: human subjects; assay: Phase 1 study of safety, tolerability and pharmacokinetics in healthy volunteers (Example 1); format: in vivo; details: Phase 1 study participants
# Text: The study is a first in-human study of ATN-10155 is designed to assess the safety, tolerability, and pharmacokinetics of ATN-10155 following administration of two phases: a single ascending dose phase and multiple ascending dose phase. The study is a randomized, double-blind study with participants in each cohort receiving active drug or matching placebo. The study evaluates the safety, tolerability, and pharmacokinetics of ATN-10155 following the single and multiple dose phases in healthy volunteers. […]
# Single Ascending Dose—the Single Ascending Dose portion comprises five or more cohorts with eight participants in each cohort, 6 actively receiving ATN-10155 and 2 receiving a placebo. […] Sentinel dosing is not employed once the maximum tolerated dose is determined or if an intermediate cohort is added that that is lower than the dose of the previous cohort. […]
# Safety and tolerability—A physical and neurological exam is done as part of the eligibility evaluation at screening. […] Systolic blood pressure, diastolic blood pressure, pulse, and peripheral arterial oxygen saturation (pulse oximetry) is recorded prior to every PK blood sample (including pre-dose) in the single ascending dose portion. […] If a post-menopausal female, follicle stimulating hormone levels is measured at screening. […]
# [7] = 1 mg/kg (minimal effective dose), male and female subjects
# [8] = 3 mg/kg, male and female subjects
# [9] = 10 mg/kg, male and female subjects
smiles,measurement,setting,value
"C[C@@]1(O)CC[C@@]2(C)[C@@H](CC[C@@H]3[C@@H]2CC[C@]2(C)[C@@H](C(=O)Cn4cc(C#N)cn4)CC[C@@H]32)C1 [CV-10155, 1-[2-[(3R,5S,8R,9S,10S,13S,14S,17S)-3-hydroxy-3,10,13-trimethyl-1,2,4,5,6,7,8,9,11,12,14,15,16,17-tetradecahydrocyclopenta[a]phenanthren-17-yl]-2-oxoethyl]pyrazole-4-carbonitrile]",AUC0-inf,[1]; [7],508-1301
same,Cmax,[1]; [7],84.4-128
same,Oral BA,[1]; [7],58.6-92.4
same,Tmax,[1]; [7],1.5-2^
same,½ life,[1]; [7],3.66-6.82
same,Oral BA,"[1]; 2 mg/kg, only male subjects",47.2
same,Tmax,"[1]; 2 mg/kg, only male subjects, in h",1.7
same,Cmax,"[1]; 2 mg/kg, only male subjects, in ng/mL",224
same,AUC0-inf,"[1]; 2 mg/kg, only male subjects, in ng·h/mL",1319
same,AUC0-inf,[1]; [8],1378-3899
same,Cmax,[1]; [8],270-440
same,Oral BA,[1]; [8],53-92.3
same,½ life,[1]; [8],2.84-4.96
same,Tmax,"[1]; 3 mg/kg, male and female subjects, in h",1.25-2.50
same,Oral BA,"[1]; 5 mg/kg, only male subjects",58.1
same,½ life,"[1]; 5 mg/kg, only male subjects",4.19
same,Tmax,"[1]; 5 mg/kg, only male subjects, in h",0.83
same,Cmax,"[1]; 5 mg/kg, only male subjects, in ng/mL",499
same,AUC0-inf,"[1]; 5 mg/kg, only male subjects, in ng·h/mL",2610
same,AUC0-inf,[1]; [9],6848-14667
same,Oral BA,[1]; [9],79.7-100
same,½ life,[1]; [9],3.23-4.80
same,Tmax,"[1]; 10 mg/kg, male and female subjects, in h",1.25-2.25
same,Cmax,"[1]; 10 mg/kg, male and female subjects, in ng/mL",1165
same,elimination in urine,[2],< 1 % of the dose
same,accumulation ratio based on AUC,[2]; once daily administration,approximately 2
same,daily dose by which steady state was achieved,"[2]; once daily administration, visual inspection of mean concentrations",eighth
same,Tmax,"[2]; plasma, Phase 1, after oral administration",3 to 4 h
same,half-life,"[2]; plasma, oral, Phase 1, both after single and repeat administration, read-out: terminal half-life (converted)",~2400 min
same,no-observed-adverse-effect-level dose,[3],6 mg/kg/day
same,genetic toxicology findings,[4],no positive findings
same,tolerability in rodent models,[5],well tolerated
same,serious adverse events,[6],minimal to no serious adverse events
same,severe adverse events,[6],minimal to no severe adverse events
